Patent US20180171280A1, “CELL CULTURE EXPOSURE SYSTEM (CCES)” (priority 2016, published 2018)

How the values were obtained:
Human primary lung cells = experiment: CellTiter-Glo Luminescent Cell Viability Assay after ALI exposure in the CCES, human primary lung cells; type: cell-based; settings: 2 h ALI exposure, 4 h post-exposure, Inc. Ct. = 100; for CellTiter-Glow viability, Average: average of 3 experiments
Procedure: (§1) The Cell Culture Exposure System (CCES) provides the ability to expose cultured mammalian cells to airborne chemicals at ALI conditions in a 24-well format.
Human primary lung cells were collected by cytology brush biopsy during bronchoscopy at EPA clinical facility in Chapel Hill. Cells were cultured by standard procedures and were provided to EPA/RTP.
Cells were cultured and plated onto Transwell membranes and grown out for 28 days as described in OP.
(§2) Cells were placed into new 24-well plates with fresh growth media and put at ALI 2 h prior to exposure. […] Control cells were exposed simultaneously to clean air for 2 h in a separate chamber. Another set of control cells were kept at ALI in an incubator (37° C., 5% CO2) for 2 h. After the exposure, cells were placed in an incubator (37° C., 5% CO2) for 4 h. A total of three exposures were conducted for each cell type.
(§3) The CellTiter-Glo® Luminescent Cell Viability Assay (Promega) determines the number of viable cells based on quantification of the ATP present; an indicator of metabolically active cells. […] Two inserts per exposure condition were measured for each run.

BEAS-2B cells = experiment: CellTiter-Glo Luminescent Cell Viability Assay after ALI exposure in the CCES, BEAS-2B cells; type: cell-based, human; settings: 2 h ALI exposure, 4 h post-exposure, Inc. Ct. = 100; for CellTiter-Glow viability, Average: average of 3 experiments
Procedure: as §1
The BEAS-2B cell line, obtained from ATTC, is an immortalized human bronchial epithelial lung cell.
Cells were grown out on T75 cm^2 flasks in complete Keratinocyte Growth Media (KGM) (KGM-Gold Bullet Kit, Lonza®). Cells were passaged and seeded onto 6.5 mm (24-well format) permeable (0.4-μm pore size) Transwell polyester membranes at passages 55 and 56. Prior to seeding, Transwells were coated with PureCol® bovine collagen (Advanced Biometrix) at a density of 10 μg/cm^2. Cells were seeded at 3.0×10^4 cells per Transwell membranes 48 h prior to exposure and at 1.5×10^4 per Transwell membrane 72 h prior to exposure to obtain a confluent monolayer. Cells were seeded on 4 inserts per exposure condition for each run.
as §2, §3

C=CC=C [1,3-Butadiene, 1,3-butadiene]
CellTiter-Glow viability, May 3, 2017 (Human primary lung cells; 0.16 ppm): 110.9 | CellTiter-Glow viability, May 4, 2017 (Human primary lung cells; 0.16 ppm): 99.9 | CellTiter-Glow viability, May 5, 2017 (Human primary lung cells; 0.16 ppm): 90.1 | CellTiter-Glow viability, Average (Human primary lung cells; 0.16 ppm): 100.3 | CellTiter-Glow viability, May 3, 2017 (Human primary lung cells; 0.5 ppm): 118.5 | CellTiter-Glow viability, May 4, 2017 (Human primary lung cells; 0.5 ppm): 86.3 | CellTiter-Glow viability, May 5, 2017 (Human primary lung cells; 0.5 ppm): 94.2 | CellTiter-Glow viability, Average (Human primary lung cells; 0.5 ppm): 99.6 | CellTiter-Glow viability, May 3, 2017 (Human primary lung cells; 1.7 ppm): 120.3 | CellTiter-Glow viability, May 4, 2017 (Human primary lung cells; 1.7 ppm): 91.8 | CellTiter-Glow viability, May 5, 2017 (Human primary lung cells; 1.7 ppm): 101.4 | CellTiter-Glow viability, Average (Human primary lung cells; 1.7 ppm): 104.5 | CellTiter-Glow viability, May 3, 2017 (Human primary lung cells; 5 ppm): 122.0 | CellTiter-Glow viability, May 4, 2017 (Human primary lung cells; 5 ppm): 112.0 | CellTiter-Glow viability, May 5, 2017 (Human primary lung cells; 5 ppm): 98.6 | CellTiter-Glow viability, Average (Human primary lung cells; 5 ppm): 110.8 | CellTiter-Glow viability, May 3, 2017 (Human primary lung cells; 16 ppm): 128.1 | CellTiter-Glow viability, May 4, 2017 (Human primary lung cells; 16 ppm): 101.3 | CellTiter-Glow viability, May 5, 2017 (Human primary lung cells; 16 ppm): 98.9 | CellTiter-Glow viability, Average (Human primary lung cells; 16 ppm): 109.4 | CellTiter-Glow viability, May 3, 2017 (Human primary lung cells; 50 ppm): 104.7 | CellTiter-Glow viability, May 4, 2017 (Human primary lung cells; 50 ppm): 92.7 | CellTiter-Glow viability, May 5, 2017 (Human primary lung cells; 50 ppm): 95.4 | CellTiter-Glow viability, Average (Human primary lung cells; 50 ppm): 97.6 | CellTiter-Glow Viability, May 10, 2017 (BEAS-2B cells; 0.16 ppm): 96.27 | CellTiter-Glow Viability, May 11, 2017 (BEAS-2B cells; 0.16 ppm): 87.14 | CellTiter-Glow Viability, May 12, 2017 (BEAS-2B cells; 0.16 ppm): 96.95 | CellTiter-Glow viability, Average (BEAS-2B cells; 0.16 ppm): 93.45 | CellTiter-Glow Viability, May 10, 2017 (BEAS-2B cells; 0.5 ppm): 101.8 | CellTiter-Glow Viability, May 11, 2017 (BEAS-2B cells; 0.5 ppm): 89.3 | CellTiter-Glow Viability, May 12, 2017 (BEAS-2B cells; 0.5 ppm): 96.1 | CellTiter-Glow viability, Average (BEAS-2B cells; 0.5 ppm): 95.73 | CellTiter-Glow Viability, May 10, 2017 (BEAS-2B cells; 1.7 ppm): 94.35 | CellTiter-Glow Viability, May 11, 2017 (BEAS-2B cells; 1.7 ppm): 94.49 | CellTiter-Glow Viability, May 12, 2017 (BEAS-2B cells; 1.7 ppm): 95.83 | CellTiter-Glow viability, Average (BEAS-2B cells; 1.7 ppm): 94.89 | CellTiter-Glow Viability, May 10, 2017 (BEAS-2B cells; 5 ppm): 105.3 | CellTiter-Glow Viability, May 11, 2017 (BEAS-2B cells; 5 ppm): 81.9 | CellTiter-Glow Viability, May 12, 2017 (BEAS-2B cells; 5 ppm): 96.8 | CellTiter-Glow viability, Average (BEAS-2B cells; 5 ppm): 94.66 | CellTiter-Glow Viability, May 10, 2017 (BEAS-2B cells; 16 ppm): 101.5 | CellTiter-Glow Viability, May 11, 2017 (BEAS-2B cells; 16 ppm): 87.31 | CellTiter-Glow Viability, May 12, 2017 (BEAS-2B cells; 16 ppm): 79.14 | CellTiter-Glow viability, Average (BEAS-2B cells; 16 ppm): 89.33 | CellTiter-Glow Viability, May 10, 2017 (BEAS-2B cells; 50 ppm): 105.1 | CellTiter-Glow Viability, May 11, 2017 (BEAS-2B cells; 50 ppm): 71.1 | CellTiter-Glow Viability, May 12, 2017 (BEAS-2B cells; 50 ppm): 9.72 | CellTiter-Glow viability, Average (BEAS-2B cells; 50 ppm): 61.99
